Source: PubChem BioAssay AID1919008 (Molecular Pharmacology Branch, DTP, NCI, 2023)
Values joined by “and” are separate entries in the source; they are usually repeats but may differ in a detail not shown here. Equal values may be shown once.

System: DMS-114 complex spheroids with HUVEC/MSC, growth % test/control
Assay: Anticancer human tumor DMS-114 cell line growth inhibition [AhR];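 note: spheroids exposed to agents for 7 days before readout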;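 for viability, T/C: 100% = DMSO vehicle control wells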
Settings: for viability, T/C: stronger effect = lower value
Description: Multicellular complex tumor spheroid response to aryl hydrocarbon receptor antagonists in combination with a variety of drugs and investigational agents in selected tumor cell lines
The current study was undertaken to assess response to aryl hydrocarbon receptor antagonists in combination with standard-of-care drugs and investigational agents in solid tumor complex spheroid models. Complex spheroids include a stromal component modeled by human endothelial cells (HUVEC) and fibroblasts modeled by human mesenchymal stem cells (MSCs). The concentration ranges selected for each drug and investigational agent were based upon clinically achievable concentrations if the clinical Cmax of the agent was known.
Compounds. The drugs and investigational agents: BAY 2416964 (NSC825713), GNF351 (NSC835774), CH-223191 (NSC835775), CPI-455 (NSC825282), aza-TdCyd (NSC777586), decitabine (NSC127716), belinostat (NSC758774), entinostat (NSC756642), pevonedistat (NSC761192), tazemetostat (NSC777109), talazoparib (NSC765396), olaparib (NSC753686), selinexor (NSC780203), nedisertib (M3814, NSC802822), bortezomib (NSC756655), venetoclax (NSC766270), doxorubicin (NSC123127), elimusertib (BAY189344, NSC800525), ceralasertib (AZD6738, NSC777638), TAK-243 (NSC785004), alisertib (NSC759677), etoposide (NSC141540), topotecan (NSC609699), eribulin (NSC707389), gemcitabine (NSC613327), carboplatin (NSC241240), cisplatin (NSC119875), and SN-38 (NSC673596) were obtained from the National Cancer Institute (NCI) Developmental Therapeutics Program Chemical Repository (32). The FDA-approved anticancer drug set is available from the Developmental Therapeutics Program at https://dtp.cancer.gov/organization/dscb/obtaining/available plates.htm. […] The stock solutions were prepared in dimethyl sulfoxide (DMSO, Sigma-Aldrich, St. Louis, MO, cat. D2650), except for the platinum compounds which were prepared in saline (Quality Biological, Gaithersburg, MD, cat. 114-055-101), at 800-fold the tested concentration and stored at -70 degrees C prior to their use. All drugs and investigational agents were tested over a range starting from a high concentration at or near the clinical Cmax and decreasing in half-log increments. If the clinical Cmax for an agent had not been determined, the highest concentration tested was 10 microM (Table 1).
Cell Culture. All cells were maintained in an incubator at 37 degrees C and 5% CO2 with 95% humidity. The PDC lines were cultured according to standard operating procedures established by the NCI PDMR (https://pdmr.cancer.gov). Briefly, all PDCs were thawed and cultured in Matrigel-coated flasks prepared with a working solution of 1X Ham's F-12 nutrient mix, without supplementation (Invitrogen, Waltham, MA, cat. 11765054), 100 U/mL penicillin-streptomycin (Invitrogen, cat. 15140122), and 2.5% Matrigel (Corning Inc., Corning, NY, cat. 354248) for the first three passages. All PDCs were cultured in complete DMEM/F-12 media containing advanced DMEM/F-12 (Invitrogen, cat. 12634028), 4.9% defined fetal bovine serum, heat inactivated (HyClone Laboratories Inc., Logan, UT, cat. SH30070.03HI), 389 ng/mL hydrocortisone (Sigma-Aldrich, cat. H4001), 9.7 ng/mL human EGF recombinant protein (Invitrogen, cat. PHG0313), 23.4 microg/mL adenine (Sigma-Aldrich, cat. A2786), 97.3 U/mL penicillin-streptomycin (Invitrogen, cat. 15140122), 1.9 mM L-glutamine (Invitrogen, cat. 25030081), and 9.7 microM Y-27632 dihydrochloride (Tocris Bioscience, Bristol, United Kingdom, cat. 1254). The PDCs were cultured in complete DMEM/F12 media without 10 microM Y-27632 dihydrochloride for at least two passages prior to the screen. The established cell lines NCI-H1341 and […] were cultured in DMEM/F-12, HEPES (Invitrogen, cat. 11330032), 5% defined fetal bovine serum (HyClone Laboratories Inc., cat. SH30070.03), ITS premix universal culture supplement [insulin (5 microg/mL), transferrin (5 microg/mL), and selenious acid (5 ng/mL)] […]

[1] = curve of first compound, second compound 0.1 µM
[2] = curve of first compound, second compound 0.316 µM
[3] = curve of first compound, second compound 1 µM
[4] = curve of first compound, second compound 3.16 µM
[5] = curve of first compound, second compound 10 µM
[6] = second compound 0.1 µM, first compound 0.00949 µM
[7] = second compound 0.1 µM, first compound 0.03 µM
[8] = second compound 0.1 µM, first compound 0.0949 µM
[9] = second compound 0.1 µM, first compound 0.3 µM
[10] = second compound 0.1 µM, first compound 0.949 µM
[11] = second compound 0.1 µM, first compound 3 µM
[12] = second compound 0.316 µM, first compound 0.00949 µM
[13] = second compound 0.316 µM, first compound 0.03 µM
[14] = second compound 0.316 µM, first compound 0.0949 µM
[15] = second compound 0.316 µM, first compound 0.3 µM
[16] = second compound 0.316 µM, first compound 0.949 µM
[17] = second compound 0.316 µM, first compound 3 µM
[18] = second compound 1 µM, first compound 0.00949 µM
[19] = second compound 1 µM, first compound 0.03 µM
[20] = second compound 1 µM, first compound 0.0949 µM
[21] = second compound 1 µM, first compound 0.3 µM
[22] = second compound 1 µM, first compound 0.949 µM
[23] = second compound 1 µM, first compound 3 µM
[24] = second compound 3.16 µM, first compound 0.00949 µM
[25] = second compound 3.16 µM, first compound 0.03 µM
[26] = second compound 3.16 µM, first compound 0.0949 µM
[27] = second compound 3.16 µM, first compound 0.3 µM
[28] = second compound 3.16 µM, first compound 0.949 µM
[29] = second compound 3.16 µM, first compound 3 µM
[30] = second compound 10 µM, first compound 0.00949 µM
[31] = second compound 10 µM, first compound 0.03 µM
[32] = second compound 10 µM, first compound 0.0949 µM
[33] = second compound 10 µM, first compound 0.3 µM
[34] = second compound 10 µM, first compound 0.949 µM
[35] = second compound 10 µM, first compound 3 µM

Compound: O=C(C=Cn1cnc(-c2cc(C(F)(F)F)cc(C(F)(F)F)c2)n1)NNc1cnccn1 + Cc1cncc(-c2nc(NCCc3c[nH]c4ccccc34)c3ncn(C(C)C)c3n2)c1
- IC50 [1]: 158 nM
- IC50 [2]: 175 nM
- IC50 [3]: 166 nM
- IC50 [4]: 166 nM
- IC50 [5]: < 9.49 nM
- viability, T/C [6]: 111%
- viability, T/C [7]: 101%
- viability, T/C [8]: 61.7%
- viability, T/C [9]: 32.7%
- viability, T/C [10]: 15.1%
- viability, T/C [11]: 5.4%
- viability, T/C [12]: 103%
- viability, T/C [13]: 99.8%
- viability, T/C [14]: 63.5%
- viability, T/C [15]: 36.6%
- viability, T/C [16]: 14.4%
- viability, T/C [17]: 5.66%
- viability, T/C [18]: 110%
- viability, T/C [19]: 109%
- viability, T/C [20]: 65.3%
- viability, T/C [21]: 31.7%
- viability, T/C [22]: 13.6%
- viability, T/C [23]: 5.72%
- viability, T/C [24]: 94%
- viability, T/C [25]: 109%
- viability, T/C [26]: 61.1%
- viability, T/C [27]: 34.5%
- viability, T/C [28]: 15.1%
- viability, T/C [29]: 5.67%
- viability, T/C [30]: 38.6%
- viability, T/C [31]: 34.2%
- viability, T/C [32]: 30.6%
- viability, T/C [33]: 21.1%
- viability, T/C [34]: 13.5%
- viability, T/C [35]: 7.49%

Compound: CCc1c2c(nc3ccc(O)cc13)-c1cc3c(c(=O)n1C2)COC(=O)[C@]3(O)CC
- viability, T/C (compound 0.000949 µM): 67.7% and 96.1% and 59.2%
- viability, T/C (compound 0.003 µM): 40.4% and 91.2% and 42.6%
- viability, T/C (compound 0.00949 µM): 20% and 50% and 21.4%
- viability, T/C (compound 0.03 µM): 13.4% and 36.5% and 21.1%
- viability, T/C (compound 0.0949 µM): 14.4% and 37.9% and 15.2%
- viability, T/C (compound 0.3 µM): 14.4% and 35.1% and 16.7%
- IC50 (curve of compound): 2.01 nM and 9.5 nM and 1.79 nM

Compound: CC(C)c1c(-c2ccccc2)nc2c(C#N)c[nH]n2c1=O
- viability, T/C (compound 0.0316 µM): 104% and 106% and 108%
- viability, T/C (compound 0.1 µM): 117% and 104% and 101%
- viability, T/C (compound 0.316 µM): 108% and 99.2% and 105%
- viability, T/C (compound 1 µM): 105% (2×) and 96.3%
- viability, T/C (compound 3.16 µM): 116% and 99.7% and 105%
- viability, T/C (compound 10 µM): 111% and 102% (2×)
- IC50 (curve of compound): > 10000 nM

Compound: CC1COCCN1c1cc(-c2ccnn2C)c2ccnc(-c3ccn[nH]3)c2n1 (centres undefined) + Cc1ccccc1N=Nc1ccc(NC(=O)c2ccnn2C)c(C)c1
- IC50 [1]: 620 nM
- IC50 [2]: 500 nM
- IC50 [3]: 475 nM
- IC50 [4]: 495 nM
- IC50 [5]: 538 nM
- viability, T/C (second compound 0.1 µM, first compound 0.00316 µM): 110%
- viability, T/C (second compound 0.1 µM, first compound 0.01 µM): 96.3%
- viability, T/C (second compound 0.1 µM, first compound 0.0316 µM): 98.1%
- viability, T/C (second compound 0.1 µM, first compound 0.1 µM): 85.8%
- viability, T/C (second compound 0.1 µM, first compound 0.316 µM): 68.6%
- viability, T/C (second compound 0.1 µM, first compound 1 µM): 37.2%
- viability, T/C (second compound 0.316 µM, first compound 0.00316 µM): 94.3%
- viability, T/C (second compound 0.316 µM, first compound 0.01 µM): 106%
- viability, T/C (second compound 0.316 µM, first compound 0.0316 µM): 95.2%
- viability, T/C (second compound 0.316 µM, first compound 0.1 µM): 83.8%
- viability, T/C (second compound 0.316 µM, first compound 0.316 µM): 58.7%
- viability, T/C (second compound 0.316 µM, first compound 1 µM): 37.2%
- viability, T/C (second compound 1 µM, first compound 0.00316 µM): 97.8%
- viability, T/C (second compound 1 µM, first compound 0.01 µM): 98.2%
- viability, T/C (second compound 1 µM, first compound 0.0316 µM): 101%
- viability, T/C (second compound 1 µM, first compound 0.1 µM): 84.8%
- viability, T/C (second compound 1 µM, first compound 0.316 µM): 57.4%
- viability, T/C (second compound 1 µM, first compound 1 µM): 37.3%
- viability, T/C (second compound 3.16 µM, first compound 0.00316 µM): 99.7%
- viability, T/C (second compound 3.16 µM, first compound 0.01 µM): 101%
- viability, T/C (second compound 3.16 µM, first compound 0.0316 µM): 92.1%
- viability, T/C (second compound 3.16 µM, first compound 0.1 µM): 81.5%
- viability, T/C (second compound 3.16 µM, first compound 0.316 µM): 58%
- viability, T/C (second compound 3.16 µM, first compound 1 µM): 37%
- viability, T/C (second compound 10 µM, first compound 0.00316 µM): 89.9%
- viability, T/C (second compound 10 µM, first compound 0.01 µM): 89.2%
- viability, T/C (second compound 10 µM, first compound 0.0316 µM): 89.1%
- viability, T/C (second compound 10 µM, first compound 0.1 µM): 66.2%
- viability, T/C (second compound 10 µM, first compound 0.316 µM): 60.5%
- viability, T/C (second compound 10 µM, first compound 1 µM): 41%

Compound: CCN(c1cc(-c2ccc(CN3CCOCC3)cc2)cc(C(=O)NCc2c(C)cc(C)[nH]c2=O)c1C)C1CCOCC1 + Cc1cncc(-c2nc(NCCc3c[nH]c4ccccc34)c3ncn(C(C)C)c3n2)c1
- IC50 [1]: > 3000 nM
- IC50 [2]: > 3000 nM
- IC50 [3]: > 3000 nM
- IC50 [4]: > 3000 nM
- IC50 [5]: 361 nM
- viability, T/C [6]: 92.9%
- viability, T/C [7]: 97.4%
- viability, T/C [8]: 92.9%
- viability, T/C [9]: 92.6%
- viability, T/C [10]: 82.7%
- viability, T/C [11]: 70.8%
- viability, T/C [12]: 94.9%
- viability, T/C [13]: 89.3%
- viability, T/C [14]: 109%
- viability, T/C [15]: 90.5%
- viability, T/C [16]: 78.9%
- viability, T/C [17]: 59%
- viability, T/C [18]: 99.1%
- viability, T/C [19]: 101%
- viability, T/C [20]: 95.9%
- viability, T/C [21]: 91.2%
- viability, T/C [22]: 76.6%
- viability, T/C [23]: 68.8%
- viability, T/C [24]: 99.3%
- viability, T/C [25]: 97.8%
- viability, T/C [26]: 90%
- viability, T/C [27]: 92%
- viability, T/C [28]: 74.8%
- viability, T/C [29]: 63.5%
- viability, T/C [30]: 58.2%
- viability, T/C [31]: 55.2%
- viability, T/C [32]: 54.3%
- viability, T/C [33]: 50.9%
- viability, T/C [34]: 45.7%
- viability, T/C [35]: 46.4%
